Laboratory results reported in ChEMBL document CHEMBL4004849, “Tetrazolylmethyl quinolines: Design, docking studies, synthesis, anticancer and antifungal analyses” (2017).
Activity calls are given as the source filed them. The rule behind the calls is not given here.

Columns and labels:
Type in all cases: functional
K562 = assay: Growth inhibition of human K562 cells at 10^-5 M incubated for 48 hrs by sulforhodamine B assay relative to control; details: for inhibition of growth at 10 µM: K562, 48 h, read-out: GI
SR = assay: Growth inhibition of human SR cells at 10^-5 M incubated for 48 hrs by sulforhodamine B assay relative to control; details: for inhibition of growth at 10 µM: read-out: GI
NCI-H226 = assay: Growth inhibition of human NCI-H226 cells at 10^-5 M incubated for 48 hrs by sulforhodamine B assay relative to control; details: for inhibition of growth at 10 µM: NCI-H226, 48 h, read-out: GI
HT-29 = assay: Growth inhibition of human HT-29 cells at 10^-5 M incubated for 48 hrs by sulforhodamine B assay relative to control; details: for inhibition of growth at 10 µM: HT-29, 48 h, read-out: GI
SF-268 = assay: Growth inhibition of human SF268 cells at 10^-5 M incubated for 48 hrs by sulforhodamine B assay relative to control; details: for inhibition of growth at 10 µM: SF-268, 48 h, read-out: GI
Malme-3M = assay: Growth inhibition of human MALME-3M cells at 10^-5 M incubated for 48 hrs by sulforhodamine B assay relative to control; details: for inhibition of growth at 10 µM: read-out: GI
MDA-MB-435 = assay: Growth inhibition of human MDA-MB-435 cells at 10^-5 M incubated for 48 hrs by sulforhodamine B assay relative to control; details: for inhibition of growth at 10 µM: MDA-MB-435, 48 h, read-out: GI
OVCAR-3 = assay: Growth inhibition of human OVCAR3 cells at 10^-5 M incubated for 48 hrs by sulforhodamine B assay relative to control; details: for inhibition of growth at 10 µM: OVCAR-3, 48 h, read-out: GI
SK-OV-3 = assay: Growth inhibition of human SKOV3 cells at 10^-5 M incubated for 48 hrs by sulforhodamine B assay relative to control; details: for inhibition of growth at 10 µM: SK-OV-3, 48 h, read-out: GI
CAKI-1 = assay: Growth inhibition of human Caki1 cells at 10^-5 M incubated for 48 hrs by sulforhodamine B assay relative to control; details: for inhibition of growth at 10 µM: CAKI-1, 48 h, read-out: GI
SN12C = assay: Growth inhibition of human SN12C cells at 10^-5 M incubated for 48 hrs by sulforhodamine B assay relative to control; details: for inhibition of growth at 10 µM: read-out: GI
DU-145 = assay: Growth inhibition of human DU145 cells at 10^-5 M incubated for 48 hrs by sulforhodamine B assay relative to control; details: for inhibition of growth at 10 µM: DU-145, 48 h, read-out: GI
Aspergillus fumigatus = assay: Antifungal activity against Aspergillus fumigatus at 100 ug/ml by disc diffusion method; details: read-out: IZ

| Structure (SMILES) | growth inhibition (GI) (K562) | growth inhibition (GI) (SR) | growth inhibition (GI) (NCI-H226) | growth inhibition (GI) (HT-29) | growth inhibition (GI) (SF-268) | growth inhibition (GI) (Malme-3M) | growth inhibition (GI) (MDA-MB-435) | growth inhibition (GI) (OVCAR-3) | growth inhibition (GI) (SK-OV-3) | growth inhibition (GI) (CAKI-1) | growth inhibition (GI) (SN12C) | growth inhibition (GI) (DU-145) | zone of inhibition at 100 µg/mL (Aspergillus fumigatus) | inhibition of growth at 10 µM (K562) | inhibition of growth at 10 µM (SR) | inhibition of growth at 10 µM (NCI-H226) | inhibition of growth at 10 µM (HT-29) | inhibition of growth at 10 µM (SF-268) | inhibition of growth at 10 µM (Malme-3M) | inhibition of growth at 10 µM (MDA-MB-435) | also measured |
| --- | --- | --- | --- | --- | --- | --- | --- | --- | --- | --- | --- | --- | --- | --- | --- | --- | --- | --- | --- | --- | --- |
| Fc1ccc2nc(Cl)c(Cn3nnc(CSc4ccccc4)n3)cc2c1 | Active | Active | Active | Active | Active | Active | Active | Active | Active | Active | Active | Active | 13 mm | – | – | – | – | – | – | – | – |
| COc1ccc2nc(Cl)c(Cn3nnc(Cc4ccccc4)n3)cc2c1 | – | – | – | – | – | – | – | – | – | – | – | – | 20 mm | 67.1% | 77.1% | 61% | 72.6% | 48.5% | 65.6% | 70.7% | inhibition of growth at 10 µM (OVCAR-3): 50.1%; inhibition of growth at 10 µM (SK-OV-3): 50.6%; inhibition of growth at 10 µM (CAKI-1): 56.1%; inhibition of growth at 10 µM (SN12C): 42.7%; inhibition of growth at 10 µM (DU-145): 38.4% |
| Cc1ccc2nc(Cl)c(Cn3nnc(CSc4ccccc4)n3)cc2c1 | Active | Active | Active | Active | Active | Active | Active | Active | Active | Active | Active | Active | 18 mm | – | – | – | – | – | – | – | – |
| Clc1nc2ccccc2cc1Cn1nnc(Cc2ccccc2)n1 | – | – | – | – | – | – | – | – | – | – | – | – | 16 mm | 44.8% | 63% | 41.8% | 28.4% | 34.3% | 34.4% | 34.7% | inhibition of growth at 10 µM (OVCAR-3): 40.5%; inhibition of growth at 10 µM (SK-OV-3): 42.6%; inhibition of growth at 10 µM (CAKI-1): 59.5%; inhibition of growth at 10 µM (SN12C): 29.7%; inhibition of growth at 10 µM (DU-145): 24.8% |
| Cc1ccc2nc(Cl)c(Cn3nnnc3Cc3ccccc3)cc2c1 | Active | Active | Active | Active | Active | Active | Active | Active | Active | Active | Active | Active | 10 mm | – | – | – | – | – | – | – | – |
